The target of the experiment is T1, human CRTH2 receptor (Homo sapiens, UniProt Q9Y5Y4).
T1 construct: host or cells: CHO-K1 (CHO-K1-hCRTH2 cells); membranes prepared in house from the purchased cell line
T1 sequence (Q9Y5Y4 1-395): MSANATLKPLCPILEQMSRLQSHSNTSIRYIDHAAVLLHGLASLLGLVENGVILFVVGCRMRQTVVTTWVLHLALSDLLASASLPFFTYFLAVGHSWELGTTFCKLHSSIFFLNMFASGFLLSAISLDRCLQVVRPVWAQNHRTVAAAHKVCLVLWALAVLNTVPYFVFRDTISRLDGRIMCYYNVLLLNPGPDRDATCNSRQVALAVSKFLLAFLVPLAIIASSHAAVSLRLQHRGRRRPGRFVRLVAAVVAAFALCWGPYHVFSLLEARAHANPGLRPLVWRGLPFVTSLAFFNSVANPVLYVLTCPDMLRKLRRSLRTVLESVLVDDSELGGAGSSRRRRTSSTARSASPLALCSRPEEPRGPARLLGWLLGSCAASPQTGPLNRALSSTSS
The experiment is described as follows: Human CRTH2 receptor membrane radioligand binding assay (SPA, [3H]-PGD2). As to conditions: displacement of [3H]-PGD2 (1 nM) from CHO-K1-hCRTH2 cell membranes, 3 h room temperature. The method, then: Preparation of Human CRTH2 Receptor Membranes and Radioligand Binding Assay
The binding of CRTH2 antagonists is determined using membranes prepared from Chinese hamster ovary cells (CHO-K1 cells) transfected with the human CRTH2 receptor (CHO-K1-hCRTH2 cells, Perkin Elmer, Cat No ES-561-C). To produce cell membranes the CHO-K1-hCRTH2 cells are cultured in suspension in CHO SFMII medium supplemented with 400 μg/ml G418. The cells are harvested by centrifugation at 300 g for 10 min at room temperature. The cell pellet is resuspended in Phosphate Buffer Saline (PBS) including a protease inhibitor mix (Complete, Roche) and adjusted to a concentration of 10E7 cells/ml. The CHO-K1-hCRTH2 cells are disrupted by nitrogen […] to obtain the membrane preparation. Cell debris is removed by centrifugation (500 g at 4° C., 30 min) and the supernatant is transferred into fresh tubes followed by a second centrifugation at 40000 g for 1 h at 4° C. to sediment the membranes. The membranes are suspended in SPA incubation buffer (50 mM Tris HCl, 10 mM MgCl2, 150 mM NaCl, 1 mM EDTA, pH 7.4) without bovine serum albumin, homogenized by passing through a single use needle (Terumo, 23G×1″), and stored in aliquots at −80° C.
The CRTH2 receptor binding assay is performed in a scintillation proximity assay (SPA) format with the radioligand [^3H]-PGD2 (Perkin Elmer, NET616000MC). CHO-K1-hCRTH2 cell membranes are again homogenized by passing through a single use needle (Terumo, 23G×1″) and diluted in SPA incubation buffer in suitable concentrations (0.5-10 μg protein/well). The SPA assay is set up in 96 well microtiter plates (Perkin Elmer, CatNo. 6005040) in SPA incubation buffer with a final volume of 200 μl per well and final concentration of 50 mM Tris-HCl, 10 mM MgCl2, 150 mM NaCl, 1 mM EDTA pH 7.4, 0.1% bovine serum albumin). The SPA assay mixture contains 60 μl of the membrane suspension, 80 μl of Wheat Germ Agglutinin coated PVT beads (GE Healthcare, RPNQ-0001, 0.3 mg/well), 40 μl of [3H]-PGD2 diluted in SPA buffer to a final concentration of 1 nM (50 000 dpm) and 20 μl of the test compound (dissolved in dimethylsulfoxid). The SPA assay mixture is incubated for 3 h at room temperature. Bound radioactivity is determined with a scintillation counter (Micro Beta Trilux, Wallac).
The binding of [^3H]-PGD2 to CHO-K1-hCRTH2 cell membranes is determined in the absence (total binding, Bo) and presence (non-specific binding, NSB) of unlabelled PGD2 (1 μM, Cayman Chemical, Cat No 12010) or a reference CRTH2 antagonist (10 μM CAY10471, Cayman Chemical, Cat No 10006735).
Determination of the affinity of a test compound is calculated by subtraction of the non-specific binding (NSB) from the total binding (Bo) or the binding in the presence of the test compound (B) at a given compound concentration. […] The Bo−NSB value is set to 0% inhibition.
Regarding `CCc1c(CC(=O)O)c(C)nn1Cc1ccc(NC(=O)c2ccc(C(F)(F)F)cc2)cc1` [Example 2.52], the affinity, expressed as Ki, was 0.5 nM.
`Cc1nn(Cc2ccc(C(=O)Nc3ccc(F)c(Cl)c3)cc2)c(C)c1CC(=O)O` [Example 9.4] came in with an inhibitory constant (Ki) of 18.6 nM.
The result for `CC(C)(C)c1nn(Cc2ccc(C(=O)Nc3ccc(F)c(Cl)c3)cc2)c(C(C)(C)C)c1CC(=O)O` [Example 9.15] reads 32 nM; that for `Cc1nn(Cc2ccc(COc3ccc(Cl)c(Cl)c3)cc2)c(C)c1CC(=O)O` [Example 14.2], 43 nM; that for `CCc1nn(Cc2ccc(NC(=O)c3cccc(Cl)c3Cl)cc2)c(CC)c1CC(=O)O` [Example 2.20], 13.9 nM.
Molecule `Cc1nn(Cc2ccc(NC(=O)c3ccc(C(F)(F)F)cc3)cc2Cl)c(C)c1CC(=O)O` [Example 7.8] registered a Ki of 0.8 nM.
Molecule `CCc1nn(Cc2ccc(NC(=O)OCc3ccccc3Br)cc2)c(CC)c1CC(=O)O` [Example 3.11] had a Ki of 3.5 nM.
The figure for `Cc1ccc(NC(=O)c2ccc(Cn3nc(C)c(CC(=O)O)c3C)cc2)cc1Cl` [Example 9.7] is 7.5 nM.
On to `CCc1nn(Cc2ccc(OCc3cccc(C(F)(F)F)c3)cc2)c(CC)c1CC(=O)O` [Example 13.10], for which the affinity, expressed as Ki, was 19.6 nM.
As to `CCc1nn(Cc2ccc(NC(=O)c3ccc(Br)cc3C)cc2)c(CC)c1CC(=O)O` [Example 2.17], the Ki stood at 0.7 nM.
Consider `Cc1nn(Cc2ccc(NC(=O)OCc3ccccc3Cl)cc2)c(C)c1CC(=O)O` [Example 3.5], for which the Ki was determined as 16.8 nM.
`Cc1ccc(Br)c(C(=O)Nc2ccc(Cn3nc(C)c(CC(=O)O)c3C)cc2)c1` [Example 1.31] showed a Ki of 18.9 nM.
For the molecule `CCc1nn(Cc2ccc(C(=O)Nc3ccc(F)c(Cl)c3)cc2)c(CC)c1CC(=O)O` [Example 9.12], the affinity, expressed as Ki, was 4.8 nM.
`Cc1c(CC(=O)O)cnn1Cc1ccc(NC(=O)c2ccc(Cl)c(Cl)c2)cc1` [Example 2.56] yielded a Ki of 27.8 nM.
`Cc1nn(Cc2ccc(OCc3ccc(C(F)(F)F)cc3)cc2)c(C)c1CC(=O)O` [Example 13.2] had a Ki of 1070 nM.
The result for `CCc1nn(Cc2ccc(NC(=O)c3ccccc3C3CCCCC3)cc2)c(CC)c1CC(=O)O` [Example 2.29] reads 6.3 nM; that for `CCc1nn(Cc2ccc(NC(=O)OCc3ccc(Cl)c(Cl)c3)cc2)c(CC)c1CC(=O)O` [Example 3.9], 0.1 nM.
For `Cc1nn(Cc2ccc(C#Cc3ccc(C(F)(F)F)cc3)cc2)c(C)c1CC(=O)O` [Example 12.1], the Ki was 127 nM.
`CCc1nn(Cc2ccc(NC(=O)c3ccccc3)cc2)c(CC)c1CC(=O)O` [Example 2.3]: the Ki was 3.4 nM.
The molecule `CCc1nn(Cc2ccc(OCc3ccc(OC(F)(F)F)c(Cl)c3)cc2)c(CC)c1CC(=O)O` [Example 13.11] gave a Ki of 48.8 nM.
As for `Cc1cc(C(F)(F)F)ccc1C(=O)Nc1ccc(Cn2nc(C)c(CCC(=O)O)c2C)cc1` [Example 8.7], the Ki was found to be 669 nM.
In the case of `CCc1nn(Cc2ccc(C(=O)NC3CCC(C)(C)CC3)cc2)c(CC)c1CC(=O)O` [Example 9.24], the Ki worked out at 49.1 nM.
`CCc1nn(Cc2ccc(C(=O)Nc3cccc(F)c3)cc2)c(CC)c1CC(=O)O` [Example 9.10] displayed a Ki of 39.1 nM.
The figure for `Cc1nn(Cc2ccc(NC(=O)c3cc4ccccc4cc3Cl)cc2)c(C)c1CC(=O)O` [Example 1.23] is 5.7 nM; for `Cc1cc(C(F)(F)F)ccc1C(=O)Nc1ccc(Cn2nc(C)c(CC(=O)O)c2C)c(F)c1` [Example 7.16] it is 3.5 nM; for `Cc1nn(Cc2ccc(NC(=O)C3[C@H]4C[C@@H]5C[C@@H](C[C@H]3C5)C4)cc2)c(C)c1CC(=O)O` (stereo partly shown) [Example 1.34] it is 4 nM.
`CCc1nn(Cc2ccc(NC(=O)c3ccccc3C3CC3)cc2)c(CC)c1CC(=O)O` [Example 2.35]: the Ki is 11.6 nM.
`Cc1nn(Cc2ccc([S+]([O-])Cc3ccc4ccccc4c3)cc2)c(C)c1CC(=O)O` (stereo not shown) [Example 19.1] displayed a Ki of 43.5 nM.
On to `CCc1c(CC(=O)O)c(C2CC2)nn1Cc1ccc(NC(=O)c2ccc(Cl)cc2C)cc1` [Example 2.46], for which the Ki stood at 0.6 nM.
The molecule `CCc1nn(Cc2ccc(S(=O)(=O)Nc3ccc(Cl)c(Cl)c3)cc2)c(CC)c1CC(=O)O` [Example 10.4] had a Ki of 21.6 nM.
The figure for `CCc1nn(Cc2ccc(NC(=O)c3cccc4c3CCCC4)cc2)c(CC)c1CC(=O)O` [Example 2.21] is 0.5 nM.
The result for `Cc1nn(Cc2ccc(NC(=O)NCc3ccccc3)cc2)c(C)c1CC(=O)O` [Example 4.1] reads 16.8 nM; that for `Cc1cc(Cl)ccc1COc1ccc(Cn2nc(C)c(CC(=O)O)c2C)cc1` [Example 13.3], 619 nM; that for `Cc1nn(Cc2ccc(NC(=O)c3ccc(C(F)(F)F)cc3)cc2F)c(C)c1CC(=O)O` [Example 7.17], 1.1 nM.
Regarding `Cc1nn(Cc2ccc(NC(=O)c3ccccc3)cc2)c(C)c1CCC(=O)O` [Example 8.3], the Ki was 3760 nM.
Turning to `Cc1nn(Cc2ccc(C(=O)Nc3cc(Cl)cc(Cl)c3)cc2)c(C)c1CC(=O)O` [Example 9.8], the affinity, expressed as Ki, was 31 nM.
`Cc1nn(Cc2ccc(NS(=O)(=O)c3ccc(Cl)cc3)cc2)c(C)c1CC(=O)O` [Example 5.2] gave a Ki of 33.7 nM.
`CCc1nn(Cc2ccc(C(=O)NCc3cc4ccccc4o3)cc2F)c(CC)c1CC(=O)O` [Example 9.28] registered a Ki of 10.4 nM.
The result for `Cc1nn(Cc2ccc(NC(=O)c3ccc(Cl)cc3F)cc2)c(C)c1CC(=O)O` [Example 1.19] reads 16.2 nM.
Molecule `Cc1nn(Cc2ccc(NC(=O)c3ccc(C(C)(C)C)cc3)cc2)c(C)c1CCC(=O)O` [Example 8.4] came in with a Ki of 26.1 nM.
The molecule `Cc1c(CC(=O)O)c(-c2ccccc2)nn1Cc1ccc(NC(=O)c2ccc(Cl)c(Cl)c2)cc1` [Example 2.13] showed a Ki of 2.9 nM.
Molecule `Cc1cc(Cl)ccc1C(=O)Nc1ccc(Cn2nc(C)c(CC(=O)O)c2C)c(F)c1` [Example 7.19] displayed an inhibitory constant (Ki) of 5.8 nM.
Turning to `Cc1nn(Cc2ccc(NC(=O)c3ccc(C(F)(F)F)cc3F)cc2)c(C)c1CC(=O)O` [Example 1.22], the affinity, expressed as Ki, was 3320 nM.
The result for `Cc1nn(Cc2ccc(NC(=O)CCc3ccccc3)cc2)c(C)c1CC(=O)O` [Example 1.10] reads 7.4 nM; that for `CCc1nn(Cc2ccc(C(=O)NC3CCC4CCCCC4C3)cc2)c(CC)c1CC(=O)O` (stereo not shown) [Example 9.25], 32.1 nM.
`CCc1nn(Cc2ccc(C(=O)NCc3ccc4ccccc4c3)cc2)c(CC)c1CC(=O)O` [Example 9.17]: the Ki was 34.9 nM.
As for `Cc1nn(Cc2ccc(NC(=O)c3ccc4ccccc4c3)cc2)cc1CC(=O)O` [Example 2.57], the affinity corresponds to a Ki of 19.3 nM. This Ki is about 1.8-fold lower than that of the molecule before.
The figure for `Cc1nn(Cc2ccc(NC(=O)c3ccc(C(F)(F)F)cc3)cc2)c(C)c1CCC(=O)O` [Example 8.2] is 125 nM.
On to `Cc1nn(Cc2ccc(NC(=O)c3ccc(Cl)c(Cl)c3)cn2)c(C)c1CC(=O)O` [Example 18.1], for which the Ki worked out at 1.6 nM.
The result for `CCc1nn(Cc2ccc(NC(=O)c3ccc(C)cc3C)cc2)c(CC)c1CC(=O)O` [Example 2.15] reads 1.4 nM.
The molecule `Cc1nn(Cc2ccc(NC(=O)OCc3ccc(Cl)c(Cl)c3)cc2)c(C)c1CC(=O)O` [Example 3.4] gave a Ki of 0.5 nM.
In turn, `Cc1nn(Cc2ccc(COc3ccccc3)cc2)c(C)c1CC(=O)O` [Example 14.3] yielded a Ki of 742 nM.

Broadly, the Ki is the dissociation constant of the complex between target and ligand, obtained from inhibition or displacement. A low value points to a stronger hold on the target.

These data come from patent publication US20140148484A1, “PYRAZOLE COMPOUNDS FOR TREATING HAIRLOSS” (Boehringer Ingelheim International GmbH, priority 2012, published 2014).
